How the values were obtained:
[1] = Plasma levels of Compound 1 over 24 hours after 14 days of suspension administration in healthy volunteers; format: in vivo; details: human, oral; for concentration at 0 h: 0 h post-dose; for concentration at 0.5 h: 0.5 h post-dose; for concentration at 1 h: 1 h post-dose; for concentration at 1.5 h: 1.5 h post-dose; for concentration at 2 h: 2 h post-dose; for concentration at 2.5 h: 2.5 h post-dose; for concentration at 3 h: 3 h post-dose; for concentration at 4 h: 4 h post-dose; for concentration at 6 h: 6 h post-dose; for concentration at 8 h: 8 h post-dose; for concentration at 8.5 h: 8.5 h post-dose; for concentration at 9 h: 9 h post-dose; for concentration at 9.5 h: 9.5 h post-dose; for concentration at 10 h: 10 h post-dose; for concentration at 10.5 h: 10.5 h post-dose; for concentration at 11.5 h: 11.5 h post-dose; for concentration at 12 h: 12 h post-dose; for concentration at 14 h: 14 h post-dose; for concentration at 16 h: 16 h post-dose; for concentration at 24 h: 24 h post-dose
Method: FIG. 2 is an assessment of the pharmacokinetics of Compound 1 in healthy volunteers over 24 hours after 14 days of administration of a suspension of the compound at three different doses (25 or 75 mg twice daily [BID] or 150 mg once daily [QD]).
A suspension formulation of varying doses of Compound 1 (25 or 75 mg twice daily [BID] or 150 mg once daily [QD]) was administered to healthy volunteers. Plasma levels of Compound 1 over 24 hours after 14 days of administration were measured (FIG. 2). Post-dose plasma levels are recited in Table 14.

SLC6A19 = molecular target: T1, SLC6A19 (Homo sapiens, UniProt Q695T7); assay: 24 h excretion of phenylalanine and Hartnup amino acids at Day 1, 7 and 14 of suspension administration in healthy volunteers; format: in vivo; details: for Hartnup Amino Acids excretion over 24 hours, Mean / Phenylalanine excretion over 24 hours, Mean: in mg
T1 construct: SCL6A19 is located in the proximal tubule of the kidney and is responsible for reabsorption of amino acids back into the blood; from tissue; host or cells: Kidney proximal tubule of healthy volunteers (in vivo, endogenous)
T1 sequence (Q695T7 1-634): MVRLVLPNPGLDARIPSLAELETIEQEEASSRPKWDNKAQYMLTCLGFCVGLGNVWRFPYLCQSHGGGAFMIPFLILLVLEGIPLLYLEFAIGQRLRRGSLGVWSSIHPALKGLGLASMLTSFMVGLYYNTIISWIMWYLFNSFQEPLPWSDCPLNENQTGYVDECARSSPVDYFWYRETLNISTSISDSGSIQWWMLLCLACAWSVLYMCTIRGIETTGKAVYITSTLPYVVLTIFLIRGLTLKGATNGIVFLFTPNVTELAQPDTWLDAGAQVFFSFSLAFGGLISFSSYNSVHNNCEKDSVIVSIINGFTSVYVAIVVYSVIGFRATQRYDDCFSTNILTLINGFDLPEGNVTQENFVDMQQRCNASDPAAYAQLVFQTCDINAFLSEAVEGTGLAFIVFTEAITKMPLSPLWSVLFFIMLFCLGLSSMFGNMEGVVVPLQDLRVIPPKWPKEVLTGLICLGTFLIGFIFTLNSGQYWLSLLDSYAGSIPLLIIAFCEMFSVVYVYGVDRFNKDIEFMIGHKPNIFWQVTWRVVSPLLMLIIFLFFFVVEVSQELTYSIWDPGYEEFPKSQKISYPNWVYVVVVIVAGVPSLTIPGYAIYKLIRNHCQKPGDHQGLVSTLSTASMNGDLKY
T1 sequence (Q9HBJ8 15-222 partner): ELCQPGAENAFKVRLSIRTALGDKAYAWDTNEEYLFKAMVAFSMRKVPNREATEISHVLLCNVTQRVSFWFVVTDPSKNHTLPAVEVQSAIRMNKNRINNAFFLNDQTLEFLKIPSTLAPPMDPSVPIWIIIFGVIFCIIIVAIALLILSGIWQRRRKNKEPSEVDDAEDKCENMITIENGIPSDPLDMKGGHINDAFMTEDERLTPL
Method: FIG. 3A is a graph of the pharmacodynamic effect of Compound 1 over time in healthy volunteers by measuring changes in total overall SLC6A19 amino acid substrates (Hartnup amino acids) over 14 days of administration of a suspension of the compound at three different doses (25 or 75 mg twice daily [BID] or 150 mg once daily [QD]).
FIG. 3B is a graph of the pharmacodynamic effect of Compound 1 over time in healthy volunteers by measuring changes in total 24 hour phenylalanine over 14 days of administration of a suspension of the compound at three different doses (25 or 75 mg twice daily [BID] or 150 mg once daily [QD]).
A suspension formulation of varying doses of Compound 1 (25 or 75 mg twice daily [BID] or 150 mg once daily [QD]) was administered to healthy volunteers. Changes in excretion of phenylalanine or overall SLC6A19 amino acid substrates (Hartnup amino acids) over 24 hours were measured at Day 1, 7 and 14 (FIGS. 3A and 3B). Urinary excretion of Hartnup amino acids over 24 hours increased from 0.4 g w/ PBO to 4.9 g w/ the compound 75 mg BID (13-fold increase) (Table 15A).

For `NC(=O)N1CCC[C@@H](N(C(=O)NCc2ccc(OC(F)(F)F)cc2F)C2CC2)C1` [Cpd 1, (R)-3-(1-cyclopropyl-3-(2-fluoro-4-(trifluoromethoxy)benzyl)ureido) piperidine-1-carboxamide], the concentration at 0 h ([1]; 25 mg BID suspension) was 186 ng/mL, the concentration at 0.5 h ([1]; 25 mg BID suspension) was 1190 ng/mL and the concentration at 1 h ([1]; 25 mg BID suspension) was 1090 ng/mL. The concentration at 1.5 h ([1]; 25 mg BID suspension) was 1000 ng/mL, the concentration at 2 h ([1]; 25 mg BID suspension) was 922 ng/mL and the concentration at 2.5 h ([1]; 25 mg BID suspension) was 899 ng/mL. The concentration at 3 h ([1]; 25 mg BID suspension) was 820 ng/mL, the concentration at 4 h ([1]; 25 mg BID suspension) was 682 ng/mL and the concentration at 6 h ([1]; 25 mg BID suspension) was 442 ng/mL. It also gave a concentration at 8 h ([1]; 25 mg BID suspension) of 336 ng/mL, a concentration at 8.5 h ([1]; 25 mg BID suspension) of 894 ng/mL and a concentration at 9 h ([1]; 25 mg BID suspension) of 977 ng/mL. The concentration at 9.5 h ([1]; 25 mg BID suspension) was 1010 ng/mL, the concentration at 10 h ([1]; 25 mg BID suspension) was 1010 ng/mL and the concentration at 10.5 h ([1]; 25 mg BID suspension) was 957 ng/mL. The concentration at 11.5 h ([1]; 25 mg BID suspension) was 909 ng/mL, the concentration at 12 h ([1]; 25 mg BID suspension) was 748 ng/mL and the concentration at 14 h ([1]; 25 mg BID suspension) was 562 ng/mL. It also gave a concentration at 16 h ([1]; 25 mg BID suspension) of 422 ng/mL, a concentration at 24 h ([1]; 25 mg BID suspension) of 193 ng/mL and a concentration at 0 h ([1]; 75 mg BID suspension) of 916 ng/mL. It also gave a concentration at 0.5 h ([1]; 75 mg BID suspension) of 3350 ng/mL, a concentration at 1 h ([1]; 75 mg BID suspension) of 3860 ng/mL and a concentration at 1.5 h ([1]; 75 mg BID suspension) of 3550 ng/mL. It also gave a concentration at 2 h ([1]; 75 mg BID suspension) of 3330 ng/mL, a concentration at 2.5 h ([1]; 75 mg BID suspension) of 3140 ng/mL and a concentration at 3 h ([1]; 75 mg BID suspension) of 2910 ng/mL. It also gave a concentration at 4 h ([1]; 75 mg BID suspension) of 2610 ng/mL, a concentration at 6 h ([1]; 75 mg BID suspension) of 2000 ng/mL and a concentration at 8 h ([1]; 75 mg BID suspension) of 1600 ng/mL. For the same compound, the concentration at 8.5 h ([1]; 75 mg BID suspension) was 3430 ng/mL, the concentration at 9 h ([1]; 75 mg BID suspension) was 3600 ng/mL and the concentration at 9.5 h ([1]; 75 mg BID suspension) was 3740 ng/mL. It also gave a concentration at 10 h ([1]; 75 mg BID suspension) of 3600 ng/mL, a concentration at 10.5 h ([1]; 75 mg BID suspension) of 3740 ng/mL and a concentration at 11.5 h ([1]; 75 mg BID suspension) of 3200 ng/mL. It also gave a concentration at 12 h ([1]; 75 mg BID suspension) of 2900 ng/mL, a concentration at 14 h ([1]; 75 mg BID suspension) of 2280 ng/mL and a concentration at 16 h ([1]; 75 mg BID suspension) of 1850 ng/mL. It also gave a concentration at 24 h ([1]; 75 mg BID suspension) of 741 ng/mL, a concentration at 0 h ([1]; 150 mg QD suspension) of 299 ng/mL and a concentration at 0.5 h ([1]; 150 mg QD suspension) of 4230 ng/mL. The concentration at 1 h ([1]; 150 mg QD suspension) was 4590 ng/mL, the concentration at 1.5 h ([1]; 150 mg QD suspension) was 4360 ng/mL and the concentration at 2 h ([1]; 150 mg QD suspension) was 4100 ng/mL. For the same compound, the concentration at 2.5 h ([1]; 150 mg QD suspension) was 3940 ng/mL, the concentration at 3 h ([1]; 150 mg QD suspension) was 3660 ng/mL and the concentration at 4 h ([1]; 150 mg QD suspension) was 3130 ng/mL. For the same compound, the concentration at 6 h ([1]; 150 mg QD suspension) was 2270 ng/mL, the concentration at 8 h ([1]; 150 mg QD suspension) was 1750 ng/mL and the concentration at 10 h ([1]; 150 mg QD suspension) was 1360 ng/mL. The concentration at 12 h ([1]; 150 mg QD suspension) was 1000 ng/mL, the concentration at 24 h ([1]; 150 mg QD suspension) was 247 ng/mL and the “Hartnup Amino Acids excretion over 24 hours, Mean” value (SLC6A19; 25 mg BID suspension, Day 1) was 2123.44. The “Phenylalanine excretion over 24 hours, Mean” value (SLC6A19; 25 mg BID suspension, Day 1) was 37.38, the “Hartnup Amino Acids excretion over 24 hours, Mean” value (SLC6A19; 25 mg BID suspension, Day 7) was 1835.21 and the “Phenylalanine excretion over 24 hours, Mean” value (SLC6A19; 25 mg BID suspension, Day 7) was 35.22. For the same compound, the “Hartnup Amino Acids excretion over 24 hours, Mean” value (SLC6A19; 25 mg BID suspension, Day 14) was 1427.77, the “Phenylalanine excretion over 24 hours, Mean” value (SLC6A19; 25 mg BID suspension, Day 14) was 19.65 and the “increase of urinary excretion of Hartnup amino acids over 24 hours” value (SLC6A19; 75 mg BID suspension versus PBO (0.4 g)) was 13 fold. For the same compound, the “Hartnup Amino Acids excretion over 24 hours, Mean” value (SLC6A19; 75 mg BID suspension, Day 1) was 4472.55, the “Phenylalanine excretion over 24 hours, Mean” value (SLC6A19; 75 mg BID suspension, Day 1) was 105.25 and the “Hartnup Amino Acids excretion over 24 hours, Mean” value (SLC6A19; 75 mg BID suspension, Day 7) was 4398.31. For the same compound, the “Phenylalanine excretion over 24 hours, Mean” value (SLC6A19; 75 mg BID suspension, Day 7) was 70.98, the “Hartnup Amino Acids excretion over 24 hours, Mean” value (SLC6A19; 75 mg BID suspension, Day 14) was 4922.75 and the “Phenylalanine excretion over 24 hours, Mean” value (SLC6A19; 75 mg BID suspension, Day 14) was 88.64. For the same compound, the “Urinary excretion of Hartnup amino acids over 24 hours” value (SLC6A19; 75 mg BID suspension, healthy volunteers) was 4.9 g, the “Hartnup Amino Acids excretion over 24 hours, Mean” value (SLC6A19; 150 mg QD suspension, Day 1) was 3861.43 and the “Phenylalanine excretion over 24 hours, Mean” value (SLC6A19; 150 mg QD suspension, Day 1) was 106.76. For the same compound, the “Hartnup Amino Acids excretion over 24 hours, Mean” value (SLC6A19; 150 mg QD suspension, Day 7) was 6785.54, the “Phenylalanine excretion over 24 hours, Mean” value (SLC6A19; 150 mg QD suspension, Day 7) was 166.71 and the “Hartnup Amino Acids excretion over 24 hours, Mean” value (SLC6A19; 150 mg QD suspension, Day 14) was 3737.47. For the same compound, the “Phenylalanine excretion over 24 hours, Mean” value (SLC6A19; 150 mg QD suspension, Day 14) was 72.43.
